According to patent US9663529B2, “Tricyclic pyrido-carboxamide derivatives as rock inhibitors” (BRISTOL-MYERS SQUIBB COMPANY, priority 2013, dated 2017):

Biological target: ROCK2 (Homo sapiens (Human), UniProt O75116)
Sequence (O75116 whole entry, species assumed): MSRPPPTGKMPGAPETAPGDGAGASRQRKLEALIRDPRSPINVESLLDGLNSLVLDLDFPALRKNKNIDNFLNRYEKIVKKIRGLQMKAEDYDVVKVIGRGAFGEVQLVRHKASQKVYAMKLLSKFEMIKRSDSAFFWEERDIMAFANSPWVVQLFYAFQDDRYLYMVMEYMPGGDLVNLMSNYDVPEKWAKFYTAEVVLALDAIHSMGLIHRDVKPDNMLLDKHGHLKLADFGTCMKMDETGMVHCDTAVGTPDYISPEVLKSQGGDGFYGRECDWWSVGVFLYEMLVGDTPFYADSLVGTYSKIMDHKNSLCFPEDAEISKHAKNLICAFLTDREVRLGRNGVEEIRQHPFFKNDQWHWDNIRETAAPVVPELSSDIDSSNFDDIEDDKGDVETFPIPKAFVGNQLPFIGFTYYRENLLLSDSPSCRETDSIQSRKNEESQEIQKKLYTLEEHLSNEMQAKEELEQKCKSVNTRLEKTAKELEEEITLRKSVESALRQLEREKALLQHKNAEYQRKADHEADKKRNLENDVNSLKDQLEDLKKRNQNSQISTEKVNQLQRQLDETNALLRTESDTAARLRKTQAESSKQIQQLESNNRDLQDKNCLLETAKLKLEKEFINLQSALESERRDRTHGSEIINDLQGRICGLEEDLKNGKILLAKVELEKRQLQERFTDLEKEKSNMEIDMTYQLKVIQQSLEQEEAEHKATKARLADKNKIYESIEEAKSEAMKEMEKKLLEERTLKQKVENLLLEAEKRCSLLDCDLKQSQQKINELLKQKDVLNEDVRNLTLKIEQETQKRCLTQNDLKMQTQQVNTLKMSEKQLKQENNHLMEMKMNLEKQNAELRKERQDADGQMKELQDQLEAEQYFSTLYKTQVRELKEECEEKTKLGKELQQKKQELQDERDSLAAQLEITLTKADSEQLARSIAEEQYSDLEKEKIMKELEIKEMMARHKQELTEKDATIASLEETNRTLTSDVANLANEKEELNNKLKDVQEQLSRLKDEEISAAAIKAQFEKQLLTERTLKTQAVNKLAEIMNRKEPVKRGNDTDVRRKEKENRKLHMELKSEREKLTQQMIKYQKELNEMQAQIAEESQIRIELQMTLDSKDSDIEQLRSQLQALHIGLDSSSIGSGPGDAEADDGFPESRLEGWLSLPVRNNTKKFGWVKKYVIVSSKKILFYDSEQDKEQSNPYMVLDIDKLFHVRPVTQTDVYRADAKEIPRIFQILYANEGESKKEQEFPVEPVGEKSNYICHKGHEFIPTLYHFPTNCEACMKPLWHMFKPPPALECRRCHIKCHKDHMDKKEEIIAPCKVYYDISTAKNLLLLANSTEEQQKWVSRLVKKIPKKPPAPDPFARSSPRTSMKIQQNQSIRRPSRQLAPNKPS
Assay: ROCK assay (Caliper LABCHIP peptide phosphorylation, 5 μM ATP)
Format: biochemical
Conditions: 1.5 μM peptide substrate
For `Cc1cccc(CC(=O)Nc2ccc3c(c2)OCc2cnccc2-3)c1` [Example I-12, N-(5H-chromeno[3,4-c]pyridin-8-yl)-2-m-tolylacetamide], the IC50 was 74.5 nM. `COc1cccc(C(=O)Nc2ccc3c(c2)OCc2cnccc2-3)c1` [Example I-66, N-(5H-chromeno[3,4-c]pyridin-8-yl)-3-methoxybenzamide] showed an IC50 of 2590 nM. `O=C(Cc1ccc(Cl)cc1Cl)Nc1ccc2c(c1)OCc1cnccc1-2` [Example I-14, N-(5H-chromeno [3,4-c]pyridin-8-yl)-2-(2,4-dichlorophenyl) acetamide] showed an IC50 of 54.4 nM. `O=C(Cc1ccc(-n2cnc3ccccc3c2=O)cc1)Nc1ccc2c(c1)OCc1cnccc1-2` [Example I-70, N-(5H-chromeno[3,4-c]pyridin-8-yl)-2-(4-(4-oxoquinazolin-3(4H)-yl)phenyl) acetamide] showed an IC50 of 1130 nM. Molecule `COc1cc(CC(=O)Nc2ccc3c(c2)OCc2cnccc2-3)cc(OC)c1` [Example I-18, N-(5H-chromeno[3,4-c]pyridin-8-yl)-2-(3,5-dimethoxyphenyl) acetamide] has an IC50 of 393 nM. In the case of `O=C(Cc1cc(F)cc(F)c1)Nc1ccc2c(c1)OCc1cnccc1-2` [Example I-17, N-(5H-chromeno[3,4-c]pyridin-8-yl)-2-(3,5-difluorophenyl) acetamide], the IC50 is reported as 37.8 nM. `N[C@@H](CCc1ccccc1)C(=O)Nc1ccc2c(c1)OCc1cnccc1-2` [Example I-3, (S)-2-amino-N-(5H-chromeno[3,4-c]pyridin-8-yl)-4-phenylbutanamide] showed an IC50 of 284 nM. `O=C(Cc1cccnc1)Nc1ccc2c(c1)OCc1cnccc1-2` [Example I-42, N-(5H-chromeno[3,4-c]pyridin-8-yl)-2-(pyridin-3-yl) acetamide] gave an IC50 of 287 nM. Molecule `O=C(Cc1ccc(F)cc1)Nc1ccc2c(c1)OCc1cnccc1-2` [Example I-26, N-(5H-chromeno[3,4-c]pyridin-8-yl)-2-(4-fluorophenyl) acetamide] has an IC50 of 38.7 nM. Molecule `COc1cccc(CCC(=O)Nc2ccc3c(c2)[nH]c2cnccc23)c1` [Example IV-1, 3-(3-Methoxyphenyl)-N-(9H-pyrido[3,4-b]indol-7-yl)propanamide] has an IC50 of 50.9 nM. For `O=C(Cc1ccc(Cl)c(Cl)c1)Nc1ccc2c(c1)OCc1cnccc1-2` [Example I-68, N-(5H-chromeno[3,4-c]pyridin-8-yl)-2-(3,4-dichlorophenyl) acetamide], the IC50 was 362 nM. Molecule `O=C(Nc1ccc2c(c1)OCc1cnccc1-2)c1ccc(F)cc1` [Example I-28, N-(5H-chromeno[3,4-c]pyridin-8-yl)-4-fluorobenzamide] has an IC50 of 3440 nM. For `N#Cc1ccc(-c2cnn(Cc3cccc(C(=O)Nc4ccc5c(c4)OCc4cnccc4-5)c3)c2)cc1` [Example I-27, N-(5H-chromeno[3,4-c]pyridin-8-yl)-3-((4-(4-cyanophenyl)-1H-pyrazol-1-yl)methyl)benzamide], the IC50 was 60.8 nM. In the case of `O=C(NCCc1ccccc1)Nc1ccc2c(c1)OCc1cnccc1-2` [II-3, 1-(5H-chromeno[3,4-c]pyridin-8-yl)-3-phenethylurea], the IC50 is reported as 189 nM. With `CN(C)c1ccc(C(=O)Nc2ccc3c(c2)OCc2cnccc2-3)cc1` [Example I-63, N-(5H-chromeno[3,4-c]pyridin-8-yl)-4-(dimethylamino) benzamide] the IC50 was 2370 nM. In the case of `O=C(CCc1ccccc1)Nc1ccc2c(c1)OCc1cnccc1-2` [Example I-60, N-(5H-chromeno[3,4-c]pyridin-8-yl)-3-phenylpropanamide], the IC50 is reported as 40.4 nM. `O=C(Cc1nnn[nH]1)Nc1ccc2c(c1)OCc1cnccc1-2` [Example I-59, N-(5H-chromeno[3,4-c]pyridin-8-yl)-2-(1H-tetrazol-5-yl) acetamide] showed an IC50 of 3820 nM. Molecule `O=C(Cc1cccc(C(F)(F)F)c1)Nc1ccc2c(c1)OCc1cnccc1-2` [Example I-22, N-(5H-chromeno[3,4-c]pyridin-8-yl)-2-(3-(trifluoromethyl)phenyl)acetamide] has an IC50 of 159 nM. With `O=C(Nc1cccc(Cl)c1)Nc1ccc2c(c1)OCc1cnccc1-2` [II-4, 1-(3-chlorophenyl)-3-(5H-chromeno[3,4-c]pyridin-8-yl) urea] the IC50 was 2370 nM. Molecule `CC(C(=O)Nc1ccc2c(c1)OCc1cnccc1-2)c1ccccc1Cl` (stereo not drawn) [Example I-5, 2-(2-chlorophenyl)-N-(5H-chromeno [3,4-c]pyridin-8-yl) propanamide] has an IC50 of 33.5 nM. `O=C(NCCc1ccc(Cl)cc1)Nc1ccc2c(c1)OCc1cnccc1-2` [II-9, 1-(4-chlorophenethyl)-3-(5H-chromeno[3,4-c]pyridin-8-yl) urea] showed an IC50 of 971 nM. `O=C(NCC(c1ccccc1)c1ccccc1)Nc1ccc2c(c1)OCc1cnccc1-2` [II-8, 1-(5H-chromeno[3,4-c]pyridin-8-yl)-3-(2,2-diphenylethyl)urea] showed an IC50 of 910 nM. `O=C(CCOc1ccccc1)Nc1ccc2c(c1)OCc1cnccc1-2` [Example I-2, N-(5H-chromeno[3,4-c]pyridin-8-yl)-3-phenoxypropanamide] gave an IC50 of 82.2 nM. Work on `Cc1onc(-c2ccccc2)c1NC(=O)Nc1ccc2c(c1)OCc1cnccc1-2` [II-11, 1-(5H-chromeno[3,4-c]pyridin-8-yl)-3-(5-methyl-3-phenylisoxazol-4-yl)urea] yielded an IC50 of 2240 nM. Molecule `O=C(Nc1ccc2c(c1)OCc1cnccc1-2)c1csc(-c2cccnc2)n1` [Example I-39, N-(5H-chromeno[3,4-c]pyridin-8-yl)-2-(pyridin-3-yl) thiazole-4-carboxamide] has an IC50 of 644 nM. Molecule `COC(=O)c1cccc(C(=O)Nc2ccc3c(c2)OCc2cnccc2-3)c1` [Example I-38, methyl 3-(5H-chromeno[3,4-c]pyridin-8-ylcarbamoyl)benzoate] has an IC50 of 847 nM. With `O=C(Nc1ccc2c(c1)OCc1cnccc1-2)N1CCc2ccccc21` [Example II-1, N-(5H-Chromeno[3,4-c]pyridin-8-yl)indoline-1-carboxamide] the IC50 was 387 nM. Molecule `CS(=O)(=O)c1cccc(C(=O)Nc2ccc3c(c2)OCc2cnccc2-3)c1` [Example I-43, N-(5H-chromeno[3,4-c]pyridin-8-yl)-3-(methylsulfonyl) benzamide] has an IC50 of 2190 nM. Molecule `N[C@H](CCc1ccccc1)C(=O)Nc1ccc2c(c1)OCc1cnccc1-2` [Example I-4, (R)-2-amino-N-(5H-chromeno[3,4-c]pyridin-8-yl)-4-phenylbutanamide] has an IC50 of 128 nM. Work on `O=C(Cc1cccc(Cl)c1)Nc1ccc2c(c1)OCc1cnccc1-2` [Example I-11, 2-(3-chlorophenyl)-N-(5H-chromeno [3,4-c]pyridin-8-yl) acetamide] yielded an IC50 of 24.8 nM. `O=C(NCCc1ccc2c(c1)OCO2)Nc1ccc2c(c1)OCc1cnccc1-2` [II-12, 1-(2-(benzo[d][1,3]dioxol-5-yl)ethyl)-3-(5H-chromeno[3,4-c]pyridin-8-yl)urea] showed an IC50 of 685 nM. For `COc1ccc(C(=O)Nc2ccc3c(c2)OCc2cnccc2-3)cc1` [Example I-55, N-(5H-chromeno[3,4-c]pyridin-8-yl)-4-methoxybenzamide], the IC50 was 3250 nM.

System: rat models of hypertension
Assay: not given
Conditions: control rats; cited from earlier work
For `C[C@@H](N)[C@H]1CC[C@H](C(=O)Nc2ccncc2)CC1` [Example Y-27632, Y-27632], the “blood pressure in control rats” value is given as “only a minor effect on blood pressure”.

Same assay, conditions: spontaneously hypertensive rat, renal hypertensive rat and deoxycortisone acetate salt hypertensive rat models; cited from earlier work
For `C[C@@H](N)[C@H]1CC[C@H](C(=O)Nc2ccncc2)CC1` [Example Y-27632, Y-27632], the blood pressure is given as “significantly decrease blood pressure”.

System: neointimal formation
Assay: not given
Conditions: rats, balloon injury model; cited from earlier work
For `C[C@@H](N)[C@H]1CC[C@H](C(=O)Nc2ccncc2)CC1` [Example Y-27632, Y-27632], the neointimal formation is given as “inhibited neointimal formation”.

System: IL-1 beta-induced coronary stenosis
Assay: not given
Conditions: long term treatment; cited from earlier work
In the case of `O=S(=O)(c1cccc2cnccc12)N1CCCNCC1` [fasudil], the coronary constrictive remodeling is listed as “promote a regression of coronary constrictive remodeling” and the coronary stenosis is listed as “progressively reduce coronary stenosis”.

System: rat stroke model
Assay: not given
Conditions: in vivo; cited from earlier work
In the case of `O=S(=O)(c1cccc2cnccc12)N1CCCNCC1` [fasudil], the “infarct size and neurologic deficit” value is listed as “reduce both the infarct size and neurologic deficit”.

System: congestive heart failure in Dahl salt-sensitive rats
Assay: not given
Conditions: rat, in vivo; cited from earlier work
In the case of `C[C@@H](N)[C@H]1CC[C@H](C(=O)Nc2ccncc2)CC1` [Example Y-27632, Y-27632], the “ventricular hypertrophy, fibrosis and function” value is listed as “improve ventricular hypertrophy, fibrosis and function”.
